{"source": "paper PMC3401275", "about": "(International Journal of Pharmaceutics, 2012)", "key": {"[1]": {"details": "cited from earlier work"}, "Caco-2 cells [2]": {"system": "Caco-2 cells", "experiment": "Cytotoxicity assay", "type": "cell-based, human", "details": "100µM, 48 h"}, "SMVT [3]": {"biological_target": "T1, SMVT (Canis lupus familiaris, UniProt A0A8I3MY61)", "T1 sequence (A0A8I3MY61 1-636)": "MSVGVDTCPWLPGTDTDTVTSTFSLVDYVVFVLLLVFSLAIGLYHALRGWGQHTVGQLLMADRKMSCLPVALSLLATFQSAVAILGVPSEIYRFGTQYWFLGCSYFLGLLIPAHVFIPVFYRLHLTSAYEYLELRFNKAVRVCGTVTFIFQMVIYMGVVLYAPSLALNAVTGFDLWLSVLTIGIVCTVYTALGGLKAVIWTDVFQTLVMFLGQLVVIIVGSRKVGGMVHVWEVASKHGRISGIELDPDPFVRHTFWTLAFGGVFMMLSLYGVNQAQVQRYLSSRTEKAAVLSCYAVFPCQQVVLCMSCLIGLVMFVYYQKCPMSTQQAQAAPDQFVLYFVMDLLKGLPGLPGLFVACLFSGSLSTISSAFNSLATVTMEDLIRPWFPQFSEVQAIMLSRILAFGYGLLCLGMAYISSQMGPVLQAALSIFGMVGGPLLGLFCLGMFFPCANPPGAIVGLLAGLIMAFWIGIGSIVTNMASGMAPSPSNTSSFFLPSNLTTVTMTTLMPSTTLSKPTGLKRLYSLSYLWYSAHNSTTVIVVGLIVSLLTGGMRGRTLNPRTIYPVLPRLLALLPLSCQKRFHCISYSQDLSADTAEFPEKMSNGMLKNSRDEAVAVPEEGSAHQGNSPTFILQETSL", "details": "read-out: apparent affinity constant (Km) towards SMVT; MDCK-MDR1 cells, [3H] biotin uptake, 0.1–100µM, 30 min, Michaelis-Menten fit"}, "Caco-2 cells [4]": {"system": "Caco-2 cells", "experiment": "Cellular accumulation on Caco-2 cell monolayers", "details": "30 min incubation, Fig. 3"}, "SMVT [5]": {"biological_target": "T1, SMVT", "type": "cell-based, canine", "details": "MDCK-MDR1 cells, excess biotin, Fig. 4"}, "SMVT [6]": {"biological_target": "T1, SMVT", "details": "read-out: IC50 for inhibition of [3H] biotin uptake; MDCK-MDR1 cells, 0.1–100µM, 30 min"}, "MDCK-MDR1 cells": {"system": "MDCK-MDR1 cells", "experiment": "Cellular accumulation on MDCK-MDR1 cell monolayers", "details": "30 min incubation, Fig. 2"}, "SMVT [7]": {"biological_target": "T1, SMVT", "details": "MDCK-MDR1 monolayers, 0.5µCi/ml, no inhibitor"}}, "data": [{"compound": "Nc1nc2c(ncn2COCCO)c(=O)[nH]1", "note": "[ACV, 2-amino-9-((2-hydroxyethoxy)methyl)-1H-purin-6(9H)-one]", "values": [{"measurement": "oral bioavailability", "setting": "[1]; in vivo, po", "result": "15–30%"}, {"measurement": "cytotoxic effect", "setting": "Caco-2 cells [2]", "result": "Neither ACV nor its targeted lipid prodrugs demonstrate any cytotoxic effect"}]}, {"compound": "CCCCCCC(CCCCCCCCCCC(=O)OCCOCn1cnc2c(=O)[nH]c(N)nc21)OC(=O)CCCC[C@@H]1SC[C@@H]2NC(=O)N[C@@H]21", "note": "(stereo partly shown) [B-12HS-ACV, biotin-12hydroxystearicacid-acyclovir]", "values": [{"measurement": "Km", "setting": "SMVT [3]", "result": "24 ± 3.2", "unit": "µM"}, {"measurement": "increase in the uptake compared to ACV", "setting": "Caco-2 cells [4]", "result": 8.3, "unit": "times"}, {"measurement": "uptake of prodrug in the presence of unlabeled biotin", "setting": "SMVT [5]", "result": "significantly lower"}, {"measurement": "IC50", "setting": "SMVT [6]", "result": "8.17 ± 0.09", "unit": "µM"}]}, {"compound": "Nc1nc2c(ncn2COCCOC(=O)CCCC[C@@H]2SC[C@@H]3NC(=O)N[C@@H]32)c(=O)[nH]1", "note": "[B-ACV, Biotin-ACV]", "values": [{"measurement": "Km", "setting": "SMVT [3]", "result": "30.9 ± 4.19", "unit": "µM"}, {"measurement": "increase in the uptake compared to parent drug, ACV", "setting": "MDCK-MDR1 cells", "result": 6, "unit": "times"}, {"measurement": "increase in the uptake compared to ACV", "setting": "Caco-2 cells [4]", "result": 3.5, "unit": "times"}, {"measurement": "uptake of prodrug in the presence of unlabeled biotin", "setting": "SMVT [5]", "result": "significantly lower"}, {"measurement": "IC50", "setting": "SMVT [6]", "result": "14.84 ± 0.1", "unit": "µM"}]}, {"compound": "CC(C)[C@H](N)C(=O)OCCOCn1cnc2c(=O)[nH]c(N)nc21", "note": "[VACV, Valacyclovir]", "values": [{"measurement": "increase of the oral bioavailability of ACV", "setting": "[1]; ref Balimane et al., 1998, de Vrueh et al., Guo et al., 1999, Jacobson, 1993, Perry and Faulds, 1996, Soul-Lawton et al., 1995, Talluri et al., 2008", "result": "3 to 5", "unit": "fold"}]}, {"compound": "[^3H] Biotin", "values": [{"measurement": "Permeability of [3H] biotin alone", "setting": "SMVT [7]", "result": 47.4, "unit": "nm/s"}]}, {"compound": "biotin-ricinoleicacid-acyclovir [B-R-ACV]", "values": [{"measurement": "Km", "setting": "SMVT [3]", "result": "20.2 ± 1.74", "unit": "µM"}, {"measurement": "uptake of prodrug in the presence of unlabeled biotin", "setting": "SMVT [5]", "result": "significantly lower"}, {"measurement": "IC50", "setting": "SMVT [6]", "result": "8.04 ± 0.07", "unit": "µM"}]}]}
